Molecular target: Cezanne 1 (Homo sapiens (Human), UniProt Q6GQQ9)
Assay: Cezanne 1 biochemical IC50 assay (fluorescence polarisation, TAMRA labelled peptide linked to ubiquitin)
Conditions: Cezanne 1 biochemical IC50 assay; 30 min pre-incubation, read after 2 hr at room temperature; read-out: IC50 range
Method: The Cezanne 1 construct was PCR amplified and cloned into a pFLAG-CMV-6c vector (Sigma-Aldrich) with an N-terminal FLAG tag. HEK293T cells were transfected with FLAG-Cezanne 1 using TransIT-LT1 transfection reagent (Mirus) according to the manufacturer's instructions. Cells were harvested 48 hours after transfection. […] The resin was washed two times with low salt buffer and one time with high salt buffer (20 mM Tris, pH 7.5, 500 mM NaCl, 0.5 mM EDTA, 5 mM beta-mercaptoethanol, protease inhibitors (complete mini, Roche) and phosphatase inhibitors (PhosSTOP mini, Roche). To elute the bound Cezanne 1, elution buffer (10 mM Tris, pH 7.5, 150 mM NaCl, 0.5 mM EDTA, 10% glycerol, 0.5% NP40, 5 mM beta-mercaptoethanol, 0.15 mg/ml 3× FLAG peptide (Sigma-Aldrich)) was added to the resin and incubated at 4° C. for 2.5 hours while rotating. The resin was centrifuged at 4000 rpm for 30 seconds, and the supernatant containing purified FLAG-Cezanne 1 was removed and stored at −80° C. […] Dilution plates were prepared at 21 times the final concentration (2100 μM for a final concentration of 100 μM) in 50% DMSO in a 96-well polypropylene V-bottom plate (Greiner #651201). […] Reactions were performed in duplicate in black 384 well plates (small volume, Greiner 784076) in a final reaction volume of 21 μl. Either 1 μl of 50% DMSO or diluted compound was added to the plate. Cezanne 1 was diluted in reaction buffer (40 mM Tris, pH 7.5, 0.005% Tween 20, 0.5 mg/ml BSA, 5 mM—beta-mercaptoethanol) to the equivalent of 0.005 μl/well and 10 μl of diluted Cezanne 1 was added to the compound. Enzyme and compound were incubated for 30 min at room temp. Reactions were initiated by the addition of 50 nM of TAMRA labelled peptide linked to ubiquitin via an iso-peptide bond as fluorescence polarisation substrate. Reactions were read immediately after addition of substrate and following a 2 hr incubation at room temperature. Readings were performed on a Pherastar Plus (BMG Labtech). λ Excitation 540 nm; λ Emission 590 nm.

Chain of Cezanne 1 (Q6GQQ9 whole entry): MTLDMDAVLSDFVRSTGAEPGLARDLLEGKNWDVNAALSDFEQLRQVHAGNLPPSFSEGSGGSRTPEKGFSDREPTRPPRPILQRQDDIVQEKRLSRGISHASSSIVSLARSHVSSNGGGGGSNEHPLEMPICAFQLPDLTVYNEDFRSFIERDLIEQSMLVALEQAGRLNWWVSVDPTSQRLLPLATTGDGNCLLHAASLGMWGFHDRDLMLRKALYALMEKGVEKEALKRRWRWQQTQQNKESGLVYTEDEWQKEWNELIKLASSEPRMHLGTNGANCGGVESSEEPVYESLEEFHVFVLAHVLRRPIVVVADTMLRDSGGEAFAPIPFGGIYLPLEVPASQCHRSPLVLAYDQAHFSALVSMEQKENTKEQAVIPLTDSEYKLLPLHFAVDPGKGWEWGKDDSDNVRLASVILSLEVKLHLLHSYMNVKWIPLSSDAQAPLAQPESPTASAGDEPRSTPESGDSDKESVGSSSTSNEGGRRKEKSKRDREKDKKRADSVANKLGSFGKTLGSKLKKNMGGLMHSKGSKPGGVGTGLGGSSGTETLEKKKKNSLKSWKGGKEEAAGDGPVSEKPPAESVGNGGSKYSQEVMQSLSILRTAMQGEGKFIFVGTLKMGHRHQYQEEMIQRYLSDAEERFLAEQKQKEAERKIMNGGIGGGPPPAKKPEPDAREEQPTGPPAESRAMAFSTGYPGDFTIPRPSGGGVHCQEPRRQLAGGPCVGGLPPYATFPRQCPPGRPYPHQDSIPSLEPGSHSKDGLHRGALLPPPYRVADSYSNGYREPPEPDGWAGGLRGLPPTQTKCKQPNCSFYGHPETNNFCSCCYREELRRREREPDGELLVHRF

SMILES	IC50
Cn1ncc2c(-c3cnc4c(c3)NC(=O)C3(CCN(C#N)C3)O4)cccc21 (stereo not shown) [Example 136, 7-(1-Methyl-1H-indazol-4-yl)-2-oxo-1,2-dihydrospiro[pyrido[2,3-b][1,4]oxazine-3,3′-pyrrolidine]-1′-carbonitrile]	< 100 nM
Cc1nc2cc(-c3ccc4c(c3)NC(=O)C3(CCN(C#N)C3)C4)ccc2s1 (stereo not shown) [Example 40, 7′-(2-Methylbenzo[d]thiazol-5-yl)-2′-oxo-1′,4′-dihydro-2′H-spiro[pyrrolidine-3,3′-quinoline]-1-carbonitrile]	100 to 1000 nM
N#CN1CC[C@@]2(C1)Oc1ncc(-c3ccccc3)cc1NC2=O [Example 64, (S)-2-Oxo-7-phenyl-1,2-dihydrospiro[pyrido[2,3-b][1,4]oxazine-3,3′-pyrrolidine]-1′-carbonitrile]	100 to 1000 nM
N#CN1CCC2(Cc3cc(-c4cncnc4)ccc3NC2=O)C1 (stereo not shown) [Example 111, 2′-Oxo-6′-(pyrimidin-5-yl)-1′,4′-dihydro-2′H-spiro[pyrrolidine-3,3′-quinoline]-1-carbonitrile]	100 to 1000 nM
N#CN1CC[C@@]2(C1)Oc1ncc(-c3ccc(F)cc3)cc1NC2=O [Example 74, (S)-7-(4-Fluorophenyl)-2-oxo-1,2-dihydrospiro[pyrido[2,3-b][1,4]oxazine-3,3′-pyrrolidine]-1′-carbonitrile]	100 to 1000 nM
Cc1n[nH]cc1-c1ccc2c(c1)CC1(CCN(C#N)C1)C(=O)N2 (stereo not shown) [Example 128, 6′-(3-Methyl-1H-pyrazol-4-yl)-2′-oxo-1′,4′-dihydro-2′H-spiro[pyrrolidine-3,3′-quinoline]-1-carbonitrile]	100 to 1000 nM
N#CN1CC[C@@]2(C1)Nc1ncc(-c3cccc(F)c3)cc1NC2=O [Example 73, (S)-7-(3-Fluorophenyl)-2-oxo-1,4-dihydro-2H-spiro[pyrido[2,3-b]pyrazine-3,3′-pyrrolidine]-1′-carbonitrile]	100 to 1000 nM
COCCn1ncc2c(-c3cnc4c(c3)NC(=O)C3(CCN(C#N)C3)O4)cccc21 (stereo not shown) [Example 140, 7-(1-(2-Methoxyethyl)-1H-indazol-4-yl)-2-oxo-1,2-dihydrospiro[pyrido[2,3-b][1,4]oxazine-3,3′-pyrrolidine]-1′-carbonitrile]	100 to 1000 nM
CCC1CC2(CCN(C#N)C2)C(=O)N1 (stereo not shown) [Example 80, 8-Ethyl-6-oxo-2,7-diazaspiro[4.4]nonane-2-carbonitrile]	> 10000 nM
N#CN1CCC2(Cc3ccc(-c4ccc(C(=O)N5CCOCC5)cc4)cc3NC2=O)C1 (stereo not shown) [Example 37, 7′-(4-(Morpholine-4-carbonyl)phenyl)-2′-oxo-1′,4′-dihydro-2′H-spiro[pyrrolidine-3,3′-quinoline]-1-carbonitrile]	1000 to 10000 nM
Cc1ccc2[nH]ncc2c1-c1ccc2c(c1)CC1(CCN(C#N)C1)C(=O)N2 (stereo not shown) [Example 108, 6′-(5-Methyl-1H-indazol-4-yl)-2′-oxo-1′,4′-dihydro-2′H-spiro[pyrrolidine-3,3′-quinoline]-1-carbonitrile]	100 to 1000 nM
CN(C)C(=O)c1ccc(-c2ccc3c(c2)CC2(CCN(C#N)C2)C(=O)N3)cc1 (stereo not shown) [Example 110, 4-(1-Cyano-2′-oxo-1′,4′-dihydro-2′H-spiro[pyrrolidine-3,3′-quinolin]-6′-yl)-N,N-dimethylbenzamide]	100 to 1000 nM
N#CN1CCC2(C1)NC(=O)C(c1ccccc1)NC2=O (stereo not shown) [Example 79, 7,10-Dioxo-8-phenyl-2,6,9-triazaspiro[4.5]decane-2-carbonitrile]	1000 to 10000 nM
N#CN1CCC2(C1)Nc1cccnc1NC2=O (stereo not shown) [Example 61, 3-Oxo-3,4-dihydro-1H-spiro[pyrido[2,3-b]pyrazine-2,3′-pyrrolidine]-1′-carbonitrile]	1000 to 10000 nM
CC(C)Oc1ccc(F)cc1-c1ccc2c(c1)CC1(CCN(C#N)C1)C(=O)N2 (stereo not shown) [Example 104, 6′-(5-Fluoro-2-isopropoxyphenyl)-2′-oxo-1′,4′-dihydro-2′H-spiro[pyrrolidine-3,3′-quinoline]-1-carbonitrile]	100 to 1000 nM
Cn1cc(-c2ccc3c(c2)NC(=O)C2(CCN(C#N)C2)C3)ccc1=O (stereo not shown) [Example 39, 7′-(1-Methyl-6-oxo-1,6-dihydropyridin-3-yl)-2′-oxo-1′,4′-dihydro-2′H-spiro[pyrrolidine-3,3′-quinoline]-1-carbonitrile]	1000 to 10000 nM
CC1CC2(CCN(C#N)C2)C(=O)N1 (single isomer, unassigned) [Example 83, 8-Methyl-6-oxo-2,7-diazaspiro[4.4]nonane-2-carbonitrile]	> 10000 nM

SMILES	IC50
CNC(=O)c1ccc(-c2ccc3c(c2)CC2(CCN(C#N)C2)C(=O)N3)cn1 (stereo not shown) [Example 98, 5-(1-Cyano-2′-oxo-1′,4′-dihydro-2′H-spiro[pyrrolidine-3,3′-quinolin]-6′-yl)-N-methylpicolinamide]	100 to 1000 nM
N#CN1CCC2(Cc3cc(-c4ccc(C(=O)N5CCOCC5)cc4)ccc3NC2=O)C1 (stereo not shown) [Example 120, 6′-(4-(Morpholine-4-carbonyl)phenyl)-2′-oxo-1′,4′-dihydro-2′H-spiro[pyrrolidine-3,3′-quinoline]-1-carbonitrile]	100 to 1000 nM
N#CN1CCC2(Cc3ccc(-c4cccc(NS(=O)(=O)C5CC5)c4)cc3NC2=O)C1 (stereo not shown) [Example 26, N-(3-(1-Cyano-2′-oxo-1′,4′-dihydro-2′H-spiro[pyrrolidine-3,3′-quinolin]-7′-yl)phenyl)cyclopropanesulfonamide]	100 to 1000 nM
N#Cc1cccc(-c2cnc3c(c2)NC(=O)C2(CCN(C#N)C2)O3)c1 (stereo not shown) [Example 51, 7-(3-Cyanophenyl)-2-oxo-1,2-dihydrospiro[pyrido[2,3-b][1,4]oxazine-3,3′-pyrrolidine]-1′-carbonitrile]	100 to 1000 nM
N#CN1CCC2(CCNC2=O)C1 (stereo not shown) [Example 62, 6-Oxo-2,7-diazaspiro[4.4]nonane-2-carbonitrile]	> 10000 nM
N#CN1CCC2(Cc3ccc(-c4cccc(N5CCCCC5)c4)cc3NC2=O)C1 (stereo not shown) [Example 35, 2′-Oxo-7′-(3-(piperidin-1-yl)phenyl)-1′,4′-dihydro-2′H-spiro[pyrrolidine-3,3′-quinoline]-1-carbonitrile]	1000 to 10000 nM
N#CN1CCC2(C1)NC(=O)CNC2=O (stereo not shown) [Example 77, 7,10-Dioxo-2,6,9-triazaspiro[4.5]decane-2-carbonitrile]	1000 to 10000 nM
N#CN1CCC2(Cc3cc(-c4ccc(F)cc4)ccc3NC2=O)C1 (stereo not shown) [Example 44, 6′-(4-Fluorophenyl)-2′-oxo-1′,4′-dihydro-2′H-spiro[pyrrolidine-3,3′-quinoline]-1-carbonitrile]	100 to 1000 nM
N#CN1CCC2(CC(Cc3ccccc3)NC2=O)C1 (stereo not shown) [Example 81, 8-Benzyl-6-oxo-2,7-diazaspiro[4.4]nonane-2-carbonitrile]	1000 to 10000 nM
CC(=O)Nc1ccc(-c2ccc3c(c2)CC2(CCN(C#N)C2)C(=O)N3)cc1 (stereo not shown) [Example 113, N-(4-(1-Cyano-2′-oxo-1′,4′-dihydro-2′H-spiro[pyrrolidine-3,3′-quinolin]-6′-yl)phenyl)acetamide]	100 to 1000 nM
N#CN1CCC2(Cc3cc(-c4cccc(F)c4)ccc3NC2=O)C1 (stereo not shown) [Example 45, 6′-(3-Fluorophenyl)-2′-oxo-1′,4′-dihydro-2′H-spiro[pyrrolidine-3,3′-quinoline]-1-carbonitrile]	100 to 1000 nM
Cc1cnn(C)c1-c1cnc2c(c1)NC(=O)C1(CCN(C#N)C1)N2 (stereo not shown) [Example 146, 7-(1,4-Dimethyl-1H-pyrazol-5-yl)-2-oxo-1,4-dihydro-2H-spiro[pyrido[2,3-b]pyrazine-3,3′-pyrrolidine]-1′-carbonitrile]	100 to 1000 nM
N#CN1CC[C@@]2(C1)Nc1ncc(-c3ccc(F)cc3)cc1NC2=O [Example 72, (S)-7-(4-Fluorophenyl)-2-oxo-1,4-dihydro-2H-spiro[pyrido[2,3-b]pyrazine-3,3′-pyrrolidine]-1′-carbonitrile]	100 to 1000 nM
N#CN1CCC2(CNc3ncccc3NC2=O)C1 (stereo not shown) [Example 86, 2-Oxo-1,2,4,5-tetrahydrospiro[pyrido[2,3-b][1,4]diazepine-3,3′-pyrrolidine]-1′-carbonitrile]	100 to 1000 nM
N#CN1CCC2(Cc3cc(-c4cccc5[nH]ncc45)ccc3NC2=O)C1 (stereo not shown) [Example 134, 6′-(1H-Indazol-4-yl)-2′-oxo-1′,4′-dihydro-2′H-spiro[pyrrolidine-3,3′-quinoline]-1-carbonitrile]	100 to 1000 nM
CN1CCN(c2ccc(-c3ccc4c(c3)CC3(CCN(C#N)C3)C(=O)N4)cc2)CC1 (stereo not shown) [Example 126, 6′-(4-(4-Methylpiperazin-1-yl)phenyl)-2′-oxo-1′,4′-dihydro-2′H-spiro[pyrrolidine-3,3′-quinoline]-1-carbonitrile]	100 to 1000 nM
Cn1cc(-c2ccc3c(c2)NC(=O)C2(CCN(C#N)C2)C3)cn1 (stereo not shown) [Example 12, 7′-(1-Methyl-1H-pyrazol-4-yl)-2′-oxo-1′,4′-dihydro-2′H-spiro[pyrrolidine-3,3′-quinoline]-1-carbonitrile]	1000 to 10000 nM

Reference: patent US10654853B2, “Spiro-condensed pyrrolidine derivatives as deubiquitylating enzymes (DUB) inhibitors” (MISSION THERAPEUTICS LIMITED, priority 2016, dated 2020)
